{"source": "patent US20230332145A1", "about": "“BIFUNCTIONAL MOLECULES AND METHODS OF USING THEREOF” (Flagship Pioneering, Inc., priority 2020, published 2023)", "key": {"[1]": {"tested_on": "MYC expression", "assay": "MYC expression by qPCR after RNAiMax transfection of HEK293T cells", "format": "cell-based, human", "conditions": "for MYC expression change, linker comparison: 400 to 3.125 nM", "experimental": "HEK293T cells were seeded at 30k cells/well in a 96 well tissue culture vessel day before transfection. […] Transfected cells were allowed to recover and were harvested after 24 hours. MYC expression was measured by RNA level using qPCR analysis after transfection with each of the bi-functional molecule or control molecules. Cell samples for qPCR analysis were prepared by Cells to Ct 1 Step TaqMan Kit (ThermoFisher A25602) following manufractuer’s recommendations. qPCR assays were performed using Cells to Ct qPCR master mix, gene specific TaqMan probe (ThermoFisher), and Cells to Ct cell lysate. Relative levels of MYC were normalized to β-actin as a stably expressed control. MYC TaqMan probe: ThermoFisher Assay ID Hs00153408_ml; ACTB TaqMan probe: ThermoFisher Assay ID Hs01060665_g1. During qPCR amplification, FAM fluorescence intensity for each target gene was recorded by QuantStudio7 qPCR instrument (ThermoFisher Scientific) as a measurement of the amount of double-stranded DNA produced during each PCR cycle. Ct values for each gene in each sample were computed by the instrument software based on the amplification curves, and used to determine relative expression values for target and β-actin in each sample."}, "[2]": {"tested_on": "MYC protein", "assay": "MYC protein, FRET based ELISA (Human c-Myc Cell-based kit) in HEK293T cells", "conditions": "200 nM, 24 hours", "experimental": "PVT1 ASO1-JQ1 and control molecules were transfected to HEK293T cells at 400, 200, 100, and 50 nM with RNAiMax. PVT1 ASO1-JQ1:RNAiMax ratios in transfection are: 400 nM: 1.2 ul, 200 nM:0.6 ul, 100 nM:0.3 ul, 50 nM:0.15 ul. Cells were harvested 24 hours after transfection and MYC expression changes was monitored by qPCR and by enzyme-linked immunosorbent assay (ELISA). […] For a fluorescence resonance energy transfer (FRET) based ELISA assays, cell samples were prepared by Human c-Myc Cell-based kit (Cisbio # 63ADK053PEH) following manufractuer’s recommendation. MYC protein is detected in a sandwich assay using two specific antibodies, labeled with Europium Cryptate (donor) and with d2 (acceptor). FRET signal was read with Varioskan LUX Multimode Microplate Reader (ThermoFisher) with a 6 hr kinetic read."}, "[3]": {"tested_on": "BET family of bromodomain proteins", "conditions": "cited from earlier work"}, "[4]": {"tested_on": "SYNGAP1 expression", "assay": "SYNGAP1 expression by qPCR after transfection of HEK293T cells", "format": "cell-based, human", "conditions": "200 nM, 48 hours", "experimental": "SYNGAP1 ASO1-JQ1 to SYNGAP1 ASO4-JQ1 were transfected to HEK293T cells at 200, and 67 nM with RNAiMax. SYNGAP1 ASO-JQ1:RNAiMax ratios in transfection are: 200 nM:0.6 ul, 67 nM:0.2 ul. Cells were harvested 48 hours after transfection and SYNGAP1 expression changes was monitored by qPCR. TaqMan probe used in the assay for quantitation: SYNGAP1: Assay ID Hs00405348_m1 (ThermoFisher), ACTB Assay ID Hs01060665_g1(ThermoFisher)."}, "[5]": {"tested_on": "SCN1A expression", "assay": "SCN1A expression by qPCR after transfection of SK-N-AS cells", "format": "cell-based, human", "conditions": "100 to 3.125 nM, 48 hours", "experimental": "SCN1A-ASO1 shown in Table 5A was designed against the exonic region of SCN1A mRNA. SCN1A ASO1-Linker1-JQ1 was transfected to SK-N-AS cells at 100, 50, 25, 12.5, 6.25, and 3.125 nM with RNAiMax. SCN1A ASO1-JQ1:RNAiMax ratios in transfection were: 100 nM:0.3 ul, 50 nM and below:0.15 ul. Cells were harvested 48 hours after transfection and SCN1A expression changes were monitored by qPCR. TaqMan probe used in the assay for quantitation: SCN1A Hs00374696_ml (ThermoFisher), GAPDH Hs02786624_g1 (ThermoFisher).\nSCN1A ASO1-Linker1-iBET762 was transfected to SK-N-AS cells at 100, 50, 25, 12.5, 6.25, and 3.125 nM with RNAiMax. SCN1A ASO1-iBET762:RNAiMax ratios in transfection are: 100 nM:0.3 ul, 50 nM and below:0.15 ul. Cells were harvested 48 hours after transfection and SCN1A expression changes were monitored by qPCR. TaqMan probe used in the assay for quantitation: SCN1A Hs00374696_m1 (ThermoFisher), GAPDH Hs02786624_g1 (ThermoFisher). […] SCN1A encodes for the alpha-1 subunit of the voltage-gated sodium channel (Na(V)1.1), and patients with SCN1A loss of function mutations suffers from Dravet syndrome, a neurological disorder."}, "[6]": {"conditions": "HEK293T, 400, 133, 44, 15 nM, 24 hours"}}, "note": "In the oligonucleotide strings, read from the 5' end, every base follows the letter of its sugar. An asterisk marks phosphorothioate; unmarked linkages are phosphodiester. Other units and linkages are bracketed, terminal groups are in braces. A string of capitals states the bases alone. e = 2'-O-(2-methoxyethyl) (MOE); [5mC] = 5-methylcytosine", "data": [{"substance": "PVT1-ASO1-Linker1-JQ1: PVT1 ASO1 (SEQ ID NO: 7) conjugated to JQ1 with linker 1 (eG*eT*eA*eA*eG*eT*eG*eG*eA*eA*eT*eT*e[5mC]*e[5mC]*eA*eG*eT*eT*eG; JQ1 conjugated via linker 1, further chemistry not fully specified)", "values": [{"measurement": "MYC expression change, linker comparison", "setting": "[1]; HEK293T, 24 hours", "value": "both active and increased MYC expression to similar levels"}]}, {"substance": "PVT1 ASO1-JQ1: PVT1 ASO1 (SEQ ID NO: 7) conjugated to JQ1 with linker 2 (eG*eT*eA*eA*eG*eT*eG*eG*eA*eA*eT*eT*e[5mC]*e[5mC]*eA*eG*eT*eT*eG; JQ1 conjugated via linker 2, further chemistry not fully specified)", "values": [{"measurement": "MYC response at top dose of titration", "setting": "[1]; HEK293T, 200 nM, 24 hours", "value": "slight decrease of MYC response"}, {"measurement": "MYC expression change upon dose titration", "setting": "[1]; HEK293T, 200, 100, 50, 25, 12.5, 6.25, 3.125 nM, 24 hours", "value": "dose dependent response"}, {"measurement": "MYC expression change (RNA transcripts)", "setting": "[1]; HEK293T, 400, 200, 100, 50 nM, 24 hours", "value": "increase of MYC RNA transcripts"}, {"measurement": "MYC expression change, linker comparison", "setting": "[1]; HEK293T, 24 hours", "value": "both active and increased MYC expression to similar levels"}, {"measurement": "increase in MYC expression", "setting": "[1]; HEK293T, transfected at 400, 200, 100, 50 nM, harvested after 24 hours", "value": "about 4 fold"}, {"measurement": "MYC protein level increase", "setting": "[2]", "value": "about 2 fold"}]}, {"substance": "(-)JQ1", "values": [{"measurement": "weaker biochemical activity as compared to JQ1", "setting": "[3]", "value": "> 100", "unit": "x"}]}, {"substance": "PVT1-Scr4: JQ1 conjugate of partially scrambled PVT1 ASO1 sequence scr4 (SEQ ID NO: 66) (eG*eT*eA*eA*eG*eT*eG*eG*eA*eA*eT*eT*e[5mC]*e[5mC]*eA*eT*eT*eG*eG; JQ1 conjugate, further chemistry not fully specified)", "values": [{"measurement": "MYC expression change", "setting": "[1]; HEK293T, 100 nM, 24 hours", "value": "less impact on the activities"}]}, {"substance": "SYNGAP1 ASO2-JQ1: SYNGAP1 ASO2 (SEQ ID NO: 48) conjugated to JQ1 using Linker 2 (ATCACCTCCTATAGCTCCT; 5' amino modified, conjugated to JQ1 via linker 2, further chemistry not given here)", "values": [{"measurement": "increase in SYNGAP1 expression", "setting": "[4]", "value": "about 2 fold"}]}, {"substance": "PVT1 ASO24-JQ1: PVT1 ASO24 (SEQ ID NO: 30) conjugated to JQ1 with linker 2 (CATTGAAGGATCATGGTCAT; conjugated to JQ1 via linker 2, modification pattern not given here)", "values": [{"measurement": "MYC expression change", "setting": "[1]; [6]", "value": "increased MYC expression level similar to PVT1 ASO1-JQ1"}]}, {"substance": "PVT1-Scr8: JQ1 conjugate of partially scrambled PVT1 ASO1 sequence scr8 (SEQ ID NO: 70) (eG*eT*eA*eA*eG*eT*eG*eG*eA*eA*eT*eT*e[5mC]*e[5mC]*eA*eT*eG*eG*eT; JQ1 conjugate, further chemistry not fully specified)", "values": [{"measurement": "MYC expression change", "setting": "[1]; HEK293T, 100 nM, 24 hours", "value": "less impact on the activities"}]}, {"substance": "SCN1A ASO1-JQ1: SCN1A ASO1 (SEQ ID NO: 46), 5′ Azide-N modified LNA mixmer, conjugated to JQ1 with linker 1 (AGTAAGACTGGGGTTGTT; 5' azide, LNA mixmer, JQ1 via linker 1, chemistry not fully specified)", "values": [{"measurement": "increase in SCN1A expression", "setting": "[5]", "value": "about 2 fold"}]}, {"substance": "PVT1 ASO25-JQ1: PVT1 ASO25 (SEQ ID NO: 31) conjugated to JQ1 with linker 2 (TTATAGACTAGATTGGCCAG; conjugated to JQ1 via linker 2, modification pattern not given here)", "values": [{"measurement": "MYC expression change", "setting": "[1]; [6]", "value": "increased MYC expression level similar to PVT1 ASO1-JQ1"}]}, {"substance": "PVT1-Scr1: JQ1 conjugate of partially scrambled PVT1 ASO1 sequence scr1 (SEQ ID NO: 63) (eT*eG*eA*eA*eG*eT*eG*eG*eA*eA*eT*eT*e[5mC]*e[5mC]*eA*eG*eT*eT*eG; JQ1 conjugate, further chemistry not fully specified)", "values": [{"measurement": "MYC expression change", "setting": "[1]; HEK293T, 100 nM, 24 hours", "value": "less impact on the activities"}]}]}
